Measured values taken from PubChem BioAssay (NCI).
Where “and” joins values, the source holds several entries; their conditions need not be identical. Equal entries are not always repeated.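 Where inhibition never reached the appropriate level, the endpoint shown equals the highest concentration tested. Otherwise, values were interpolated linearly from a five-concentration, 48-hour dose response in 96-well plates. Abbreviation: GI50, concentration required for 50% inhibition of growth. Definition used: TGI = concentration required for complete inhibition of growth.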 *1 amine or outer side, *2 acyl side, *3 side chain or, on linkers, in order; H or OH if unused. Where a SMILES comes first, the peptide text is derived from it. Bridges are numbered along the chain shown (N, C = ends). Roman numbers before positions name the chains, in order. [ ]: non-standard residue; d: D form. Actinocin(9to1) = Cc1c2oc3c(C)ccc(C(=O)[*:1])c3nc-2c(C(=O)[*:2])c(N)c1=O; NMeV = CN[CH](C(=O)O)C(C)C; Sar = CNCC(=O)O

Legend:
Assay in all cases: inhibition of tumour cell growth, NCI panel, 48 h
[1] = system: HCT-15 colon
[2] = system: OVCAR-5 ovarian
[3] = system: SF-295 CNS
[4] = system: MDA-MB-231 breast
[5] = system: SK-MEL-28 melanoma
[6] = system: HOP-62 NSCLC
[7] = system: IGROV1 ovarian
[8] = system: HCC-2998 colon
[9] = system: NCI-H460 lung
[10] = system: HOP-92 NSCLC

| Structure (SMILES) | GI50 [1] [µM] | TGI [2] [µM] | TGI [3] | TGI [4] [µM] | TGI [5] | TGI [6] [µM] | TGI [7] [µM] | TGI [1] [µM] | TGI [8] [µM] | TGI [9] | TGI [10] [µM] | GI50 [9] | GI50 [5] | GI50 [10] [µM] | GI50 [2] [µM] | GI50 [3] [µM] | GI50 [8] [µM] | GI50 [4] [µM] | GI50 [7] [µM] |
| --- | --- | --- | --- | --- | --- | --- | --- | --- | --- | --- | --- | --- | --- | --- | --- | --- | --- | --- | --- |
| Cc1c2oc3c(C)ccc(C(=O)NC4C(=O)NC(Cc5ccccc5)C(=O)N5CCCC5C(=O)N(C)CC(=O)N(C)C(C(C)C)C(=O)OC4C)c3nc-2c(C(=O)NC2C(=O)NC(Cc3ccccc3)C(=O)N3CCCC3C(=O)N(C)CC(=O)N(C)C(C(C)C)C(=O)OC2C)c(N)c1=O (centres undefined) (I: TFP[Sar][NMeV] / II: TFP[Sar][NMeV]; ester I:1-I:C, II:1-II:C; linker I:N-II:N via Actinocin(9to1); configuration not given here) | 0.017 | 0.0551 | 0.0465 µM and 0.413 µM | 0.255 | 0.0298 µM and 0.0417 µM | 0.102 | 0.0165 | – | – | – | – | – | – | – | – | – | – | – | – |
| O=C(NNC(=S)Nc1ccccc1)c1nsc2ccccc12 | – | > 100 | – | – | > 100 µM | > 100 | > 100 | > 100 | > 100 | > 100 µM | 90.5 | – | – | – | – | – | – | – | – |
| CC1C(NNC(N)=O)Oc2cc3c(cc2C1c1ccccc1O)OCO3 (centres undefined) | – | > 100 | 76.2 µM | > 100 | > 100 µM | > 100 | 86.4 | > 100 | > 100 | > 100 µM | 50.4 | – | – | – | – | – | – | – | – |
| CC(C)(C)c1ccc(C(O)CCCN2CCC(C(O)(c3ccccc3)c3ccccc3)CC2)cc1 (centres undefined) | – | – | – | – | 3.11 µM and 19.2 µM | – | – | – | – | 2.95 µM and 21.5 µM | 2.6 | 1.6 µM and 14.6 µM | 1.72 µM and 13.9 µM | 1.2 | – | – | – | – | – |
| CN1CCN(Cc2c[nH]c3c2C(=O)c2c(c(O)c4ccccc4c2O)C3=O)CC1 | 3.46 | 33.6 | 35.4 µM | 19.9 | 38.3 µM | – | 23.4 | 15.6 | 23.3 | 17.9 µM | 21.8 | 5.42 µM | 19.6 µM | 7.09 | 18.1 | 15 | 11.2 | 7.19 | 3.74 |
